Results as given in patent US8993566B2, “Quinoline compound composing 1,2,4-triazine-dione and use thereof” (Wuhan Shengyun Biopharma Co., Ltd., priority 2012, dated 2015).
≈ marks a conversion by molar mass, not a printed value.

How the values were obtained:
[1] = system: human nonsmall-cell lung cancer cell H460; experiment: In vitro anti-tumor cell activity (MTT), H460; format: cell-based; conditions: H460 cells, MTT, 72 h, Bliss method; for IC50: Homo sapiens, NCI-H460, read-out: H460 IC50
Method in brief: (§1)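 Cells seeded at 10^4 cells/well and grown 24 h were exposed to compounds for 72 h. Viability was read by MTT (0.5 mg/mL, 4 h) with formazan dissolved in DMSO, and IC50 was derived by the Bliss method.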

[2] = system: human colon cancer cell HT-29; experiment: In vitro anti-tumor cell activity (MTT), HT-29; format: cell-based; conditions: HT-29 cells, MTT, 72 h, Bliss method; for IC50: Homo sapiens, read-out: HT-29 IC50
Method in brief: as §1

[3] = system: human gastric cancer cell MKN-45; experiment: In vitro anti-tumor cell activity (MTT), MKN-45; format: cell-based; conditions: MKN-45 cells, MTT, 72 h, Bliss method; for IC50: Homo sapiens, read-out: MKN-45 IC50
Method in brief: as §1

[4] = system: human hepatoma carcinoma cell line SMMC-7721; experiment: In vitro anti-tumor cell activity (MTT), SMMC-7721; format: cell-based; conditions: SMMC-7721 cells, MTT, 72 h, Bliss method; for IC50: Homo sapiens, read-out: SMMC-7721 IC50
Method in brief: as §1

[5] = target: T1, c-Met kinase (His-tagged recombinant human Met (amino acids 974-end)) (Homo sapiens, UniProt P08581); experiment: c-Met Enzyme Activity Inhibition Assay (ELISA); format: biochemical; conditions: 50 pM c-Met, 5 μM ATP, room temperature 20 min; for IC50: read-out: IC50 for inhibiting c-Met kinase (converted)
T1 construct: His-tagged recombinant human Met (amino acids 974-end); His
Method in brief: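 Baculovirus-expressed His-tagged c-Met (974-end) at 50 pM with 5 μM ATP, 25 mM MOPS pH 7.4, MgCl2, MnCl2, vanadate, DTT, 1% DMSO, incubated 20 min at room temperature on POT-coated plate. Phosphorylated polymer detected with HRP-conjugated PY20 antibody, TMB read at 450 nm.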

T1 sequence (P08581 956-1390): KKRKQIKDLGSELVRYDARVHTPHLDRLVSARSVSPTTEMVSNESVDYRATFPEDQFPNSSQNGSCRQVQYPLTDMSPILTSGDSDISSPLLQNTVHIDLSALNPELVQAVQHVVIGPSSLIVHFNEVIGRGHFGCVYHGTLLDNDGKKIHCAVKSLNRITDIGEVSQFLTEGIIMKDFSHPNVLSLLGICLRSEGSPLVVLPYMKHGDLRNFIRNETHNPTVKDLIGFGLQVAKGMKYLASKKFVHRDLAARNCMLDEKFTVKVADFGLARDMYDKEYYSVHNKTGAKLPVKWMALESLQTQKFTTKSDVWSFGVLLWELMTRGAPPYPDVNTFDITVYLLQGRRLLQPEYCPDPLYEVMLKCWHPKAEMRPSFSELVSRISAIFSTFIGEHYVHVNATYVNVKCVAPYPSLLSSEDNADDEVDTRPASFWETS

Molecule | H460 IC50 [1] [µg/mL] | HT-29 IC50 [2] [µg/mL] | MKN-45 IC50 [3] [µg/mL] | SMMC-7721 IC50 [4] [µg/mL] | IC50 for inhibiting c-Met kinase [5] [µg/mL] | IC50 [1] [µg/mL] | IC50 [2] [µg/mL] | IC50 [3] [µg/mL] | IC50 [4] [µg/mL] | IC50 [5] [µM]
N-[3-fluoro-4-[6-methoxy-7-[3-(4-methyl-1-piperidinyl)propyloxy]quinolin-4-oxy]phenyl]-2-phenyl-4-methyl-3,5-dioxo-2,3,4,5-tetrahydro-1,2,4-triazine-6-carboxamide [Example 4] | 0.087 | 0.13 | 0.053 | 0.071 | 0.63 |  |  |  |  | 
N-[3-fluoro-4-[7-methoxy-6-[3-(4-morpholinyl)propyloxy]quinolin-4-oxy]phenyl]-2-(2-fluorophenyl)-4-butyl-3,5-dioxo-2,3,4,5-tetrahydro-1,2,4-triazine-6-carboxamide [Example 29] | 0.0056 | 0.12 | 0.0009 | 0.014 | 0.61 |  |  |  |  | 
COc1cc2c(Oc3ccc(NC(=O)c4nn(-c5ccc(F)c(F)c5)c(=O)n(C)c4=O)cc3F)ccnc2cc1OCCCN1CCCC1 [Example 16, N-[3-fluoro-4-[6-methoxy-7-[3-(1-pyrrolidyl)propyloxy]quinolin-4-oxy]phenyl]-2-(3,4-difluorophenyl)-4-methyl-3,5-dioxo-2,3,4,5-tetrahydro-1,2,4-triazine-6-carboxamide] |  |  |  |  |  | 0.22 (≈ 0.325 µM) | 0.3 (≈ 0.443 µM) | 0.027 (≈ 0.0399 µM) | 0.34 (≈ 0.502 µM) | 0.783
COc1cc2c(Oc3ccc(NC(=O)c4nn(-c5ccc(F)cc5)c(=O)n(C)c4=O)cc3F)ccnc2cc1OCCCN1CCOCC1 [Example 8, N-[3-fluoro-4-[6-methoxy-7-[3-(4-morpholinyl)propyloxy]quinolin-4-oxy]phenyl]-2-(4-fluorophenyl)-4-methyl-3,5-dioxo-2,3,4,5-tetrahydro-1,2,4-triazine-6-carboxamide] |  |  |  |  |  | 0.33 (≈ 0.489 µM) | 0.28 (≈ 0.415 µM) | 0.077 (≈ 0.114 µM) | 0.42 (≈ 0.623 µM) | 0.623
N-[3-fluoro-4-[6-methoxy-7-[3-(1-pyrrolidyl)propyloxy]quinolin-4-oxy]phenyl]-2-(4-methoxyphenyl)-4-methyl-3,5-dicarbonyl-2,3,4,5-tetrahydro-1,2,4-triazine-6-carboxamide [Example 11] | 2.1 | 1.4 | 3.3 | 2.5 | 0.47 |  |  |  |  | 
